This is an account of results in patent US6627623B2, “Inducing cell apoptosis and treating cancer using 1-O-acetylbritannilactone or 1,6-O,O-diacetylbritannilactone” (priority 2001, dated 2003).

For assay [1], the system named is PARP. As to the kind of experiment: PARP cleavage (apoptosis indicator) by Western blot in PA-1 cells. In kind it is cell-based. Particulars: 24 hours. How it is done: Using cleavage of PARP as an indicator of apoptosis, the compositions of the present invention were tested in PA-1 ovary cells. PARP is a 116 kD nuclear poly (ADP-ribose)polymerase that appears to be involved in DNA-repair, predominantly in response to environmental stress (Satoh, M. S. and T. Lindahl. 1992. Nature 356:356-358). PARP is important for cells to maintain their viability. Cleavage of PARP facilitates cellular disassembly and serves as a marker of cells undergoing apoptosis (Oliver, F. J. et al. 1998. J. Biol. Chem. 273:33533-33539). This protein can be cleaved by many ICE caspases to form a 85 kD protein in cells undergoing apoptosis. PA-1 cells were treated with OODABL for 24 hours. Cells were lysed and PARP cleavage was measured by Western Blot using a monoclonal antibody to PARP (Pharmingen, Inc., San Diego, Calif.). OABL induced PARP cleavage at doses of 10 and 20 μM, while OODABL induced PARP cleavage at a dose of 5 μM.

Assay [2] relates to PA-1 cells. In words: MTT cell viability assay, PA-1. In kind it is cell-based. How it is done: (§1) Cell viability was then assessed in a microculture tetrazolium/formazan assay (MTT; Scudiero, D. A. et al. 1988. Cancer Res. 48:4827-4833) using a variety of cell lines. Absorbance was measured at 550 nm and cell viability was expressed as the percentage of drug treated cells relative to that of controls. The IC50 was then defined as the concentration of drug that produced a 50% decrease in cell viability relative to controls. OODABL was first tested in a variety of cell lines. […] In NIH 3T3 (normal mouse fibroblasts) cells treated with various concentrations of OODABL (1, 10, 20 and 50 μM OODABL), cell viability was decreased in a dose-dependent manner with an IC50 of 50 μM.
(§2) OABL was then tested in some of these same cell lines. In MCF-7 cells, OABL was tested at doses of 0.3 nm, 3 nm, 30 nm, 300 nm, 3 μM, and 30 μM.
(In general: Tetrazolium dyes change colour on reduction, which living cells bring about.)

Assay [3] relates to DU-145 cells. In words: MTT cell viability assay, DU-145. In kind it is cell-based. How it is done:
as §1, §2

For assay [4], the system named is Bcl-2. As to the kind of experiment: Bcl-2 phosphorylation in OVCAR ovarian cancer cells. In kind it is cell-based. As for the experimental part: (§3) Experiments were performed to determine the activity of two of the sesquiterpene compounds isolated from Inula britannica, OABL and OODABL, as cancer preventative agents. Using a Western blot technique, the ability of these compounds to phosphorylate Bcl-2 in cancer cells was examined. […] OODABL induced Bcl-2 phosphorylation at lower effective doses, 2.5 and 5 μM.
(§4) In two ovarian cancer cell lines, OVCAR and PA-1, similar results were seen. In OVCAR cells, OODABL induced Bcl-2 phosphorylation at a dose of 5 μM, while OABL induced Bcl-2 phosphorylation at a dose of 10 μM. In PA-1 cells, OODABL induced Bcl-2 phosphorylation at a dose of 5 μM, while OABL induced Bcl-2 phosphorylation at a dose of 10 μM.

For assay [5], the system named is Bcl-2. In words: Bcl-2 phosphorylation in PA-1 ovarian cancer cells. In kind it is cell-based. To be noted: PA-1 cells. How it is done:
as §3, §4

Assay [6] relates to Bcl-2. In words: Bcl-2 phosphorylation in a prostate cancer cell line. In kind it is cell-based. How it is done:
as §3
In a prostate cancer cell line, these compounds were also able to induce Bcl-2 phosphorylation. OODABL induced Bcl-2 phosphorylation at a dose of 5 μM while OABL induced Bcl-2 phosphorylation at a dose of 10 μM.

Assay [7] concerns Bcl-2. As to the kind of experiment: Bcl-2 phosphorylation by Western blot in MCF-7 cells. Particulars: MCF-7 breast cancer cells. In kind it is cell-based. How it is done:
as §3
Background: Immunoblotting shows a protein as a band on a membrane.

Assay [8] has as its system RKO cells. As to the kind of experiment: Clonogenic assay, RKO. In kind it is cell-based. Particulars: 15 days, read-out: IC50 clonogenic assay (colonies counted). How it is done:
(§5) Cell cytotoxicity was also assessed by a clonogenic assay. MCF-7 breast cells were treated with various concentrations of OODABL (625 nm, 1.25, 2.5, 5 and 10 μM) for 15 days and cells were then stained with methylene blue and colonies counted. […] PC-3 prostate cells were treated with various concentrations of OODABL (20 and 200 nm, and 2 and 20 μM) for 15 days and cells were then stained with methylene blue and colonies counted. The IC50 was in the range of 200 nm OODABL. RKO cells were treated with various concentrations of OODABL (20 and 200 nm, and 2 and 20 μM) for 15 days and cells were then stained with methylene blue and colonies counted. The IC50 was in the range of 20 μM OODABL. Baby rat kidney cells were transformed with E1A and transfected with the Bcl-2 gene to form BRK-4B-Bcl-2 cells. These cells were treated with various concentrations of OODABL (20 and 200 nm, and 2, 10 and 20 μM) for 15 days and cells were then stained with methylene blue and colonies counted. The IC50 was in the range of 200 nM OODABL. Baby rat kidney cells were transformed with E1A and transfected with Bcl-2 gene in which phosphorylation sites were mutated to form phosphomutant BRK-4B-Bcl-2 cells. These cells were treated with various concentrations of OODABL (20 and 200 nm, and 2 and 20 μM) for 15 days and cells were then stained with methylene blue and colonies counted. […]

Assay [9] has as its system MCF-7 cells. In words: MTT cell viability assay, MCF-7. In kind it is cell-based. How it is done: as §1, §2
The subject of assay [10] is PC-3 prostate cells. In words: Clonogenic assay, PC-3. To be noted: PC-3 cells, 15 days; read-out: IC50 clonogenic assay (colonies counted). In kind it is cell-based. How it is done:
as §5

In assay [11] the test system is Bcl-2. As to the kind of experiment: Bcl-2 phosphorylation by Western blot in non-mutated BRK-4B-Bcl-2 cells. In kind it is cell-based, rat. Particulars: 12 hours. As for the experimental part: (§6) The level of Bcl-2 phosphorylation was then assessed in the non-mutated and mutated BRK-4B-Bcl-2 cells using a Western blot assay. Cells were initially treated for 12 hours with the test compound, OODABL (at concentrations of 10, 20, 30, 40, or 60 μM). Taxol was used as a positive control at a concentration of 5 μM. Cells were then lysed in ice cold radio-immune precipitation buffer with inhibitors. Equivalent amounts of proteins were electrophoresed by 12% dodecyl sulfate-polyacrylamide gel electrophoresis and transferred to nitrocellulose. Bcl-2 and phosphorylated Bcl-2 proteins were detected using a monoclonal Bcl-2 primary antibody and a secondary goat anti-mouse horseradish peroxidase conjugated antibody followed by enhanced chemiluminescence detection.

The subject of assay [12] is Bcl-2 (phosphorylation sites mutated). In words: Bcl-2 phosphorylation by Western blot in mutated BRK-4B-Bcl-2 cells. In kind it is cell-based. To be noted: mutated rat kidney cells, 12 hours. How it is done: as §6
Assay [13] relates to microtubules (tubulin) in MCF-7 cells. As to the kind of experiment: Microtubule indirect immunofluorescence in MCF-7 cells. Particulars: 12 hours. In kind it is cell-based. How it is done: The effect of OODABL on microtubules was examined by indirect immunofluorescence of MCF-7 cells using an antibody to tubulin after 12 hours treatment with either a vehicle control, 10 μM paclitaxel (positive control), or 20 μM OODABL.

Assay [14] relates to BRK-4B-Bcl-2 cells. As to the kind of experiment: Clonogenic assay, BRK-4B-Bcl-2. To be noted: 15 days, read-out: IC50 clonogenic assay (colonies counted). In kind it is cell-based, rat. As for the experimental part:
as §5

For assay [15], the system named is phosphomutant BRK-4B-Bcl-2 cells. As to the kind of experiment: Clonogenic assay, phosphomutant BRK-4B-Bcl-2. In kind it is cell-based, rat. Particulars: 15 days, read-out: IC50 clonogenic assay (colonies counted). How it is done: as §5
Assay [16] has as its system HL-60 cells. In words: TUNEL assay (APO-BRDU flow cytometry), late apoptosis. In kind it is cell-based. Particulars: 12 hours. How it is done:
In a TUNEL assay, the effect of OODABL on late apoptosis was examined. HL-60 cells lines were subjected to flow cytometry analysis using APO-BRDU. Apoptosis was detected by incorporation of Br-dUTP using a fluorescein labeled anti-BrdU monoclonal antibody after treatment with a vehicle control, 1 μM camptothecin or 20 μM OODABL for 12 hours.
Background: Flow cytometry measures light scatter and fluorescence of single cells or particles in a stream.

Assay [17] relates to NIH 3T3 (normal mouse fibroblasts) cells. In words: MTT cell viability assay, NIH 3T3. In kind it is cell-based. How it is done:
as §1

Assay [18] concerns breast cancer cell line T47D. In words: Cell cycle analysis by flow cytometry. In kind it is cell-based. Particulars: T47D cells, 20 μM, compared to control cells. How it is done:
The effect of OODABL on cell cycle was analyzed by flow cytometery using breast cancer cell lin T47D.

Several values for one entry are separate records, joined by “and”; a condition that tells them apart may be missing. Identical values can stand only once. A value given as a limit tells only on which side of the number the result lay.

For orientation: IC50 means the concentration that inhibits the measured activity by half.

For the compound `C=C1C(=O)OC2CC(C)=C(C(C)CCCOC(C)=O)C(O)C12` (stereo not drawn) [OABL, 1-O-acetylbritannilactone], the “dose inducing PARP cleavage” value in [1] was 10 µM and 20 µM. In assay [2], this compound had a 50% inhibitory concentration (IC50) of roughly 2 µM. In addition, the “cell viability (MTT), result in words” value in assay [3] (Du-145 cells, 4.68-100 μM) is “decreased cell viability”. Moreover, the “dose inducing Bcl-2 phosphorylation” value in assay [4], in [5] and in [6] was 10 µM each time. In assay [7], the “effective dose inducing Bcl-2 phosphorylation” value was 10 µM and 20 µM.

Regarding `C=C1C(=O)OC2CC(C)=C(C(C)CCCOC(C)=O)C(OC(C)=O)C12` (stereo not drawn) [OODABL, 1,6-O,O-diacetylbritannilactone], the half-maximal inhibitory concentration (IC50) in [8] was roughly 20 µM; in assay [9] it was less than 12.5 µM; in assay [2] it was less than 7.82 µM; in assay [10], roughly 0.2 µM; in assay [3] (DU-145 cells) it was less than 15.6 µM; in assay [14], roughly 0.2 µM. The concentration for half-maximal inhibition (IC50) in [15] is roughly 2 µM; in [17], 50 µM. Moreover, the “dose inducing PARP cleavage” value in assay [1] was determined as 5 µM. The “level of Bcl-2 phosphorylation” value in [11] (non-mutated cells, 10, 20, 30, 40, or 60 μM) is recorded as “dose-dependent increase in Bcl-2 phosphorylation”; in assay [12] (10-60 μM), “no phosphorylation evident”. Moreover, the effect on microtubules entry in [13] (20 μM) is “polymerized microtubules”. The “dose inducing Bcl-2 phosphorylation” value in [4], in [5] and in [6] was 5 µM each time. The “late apoptosis (Br-dUTP incorporation)” value in assay [16] (20 μM) is on record as “induce apoptosis”. In [7], the “effective dose inducing Bcl-2 phosphorylation” value was 2.5 µM and 5 µM. Moreover, in assay [18], the “effect on cell cycle” value is given as “arrested cells at the G2/M phase”.

As to `CC[C@@]1(O)C(=O)OCc2c1cc1n(c2=O)Cc2cc3ccccc3nc2-1` [camptothecin, reference compound], the “late apoptosis (Br-dUTP incorporation)” value in assay [16] (1 μM, positive control) is “induce apoptosis”.

Consider `CC(=O)O[C@H]1C(=O)[C@@]2(C)[C@H]([C@H](OC(=O)c3ccccc3)[C@]3(O)C[C@H](OC(=O)[C@H](O)[C@@H](NC(=O)c4ccccc4)c4ccccc4)C(C)=C1C3(C)C)[C@]1(OC(C)=O)CO[C@@H]1C[C@@H]2O` [paclitaxel, reference compound], for which the “level of Bcl-2 phosphorylation” value in assay [11] (non-mutated cells, 5 μM, positive control) was “increased in protein phosphorylation”; in assay [12] (5 μM), “no phosphorylation evident”. The effect on microtubules entry in assay [13] (10 μM, positive control) was “polymerized microtubules”. In addition, in assay [7], the “effective dose inducing Bcl-2 phosphorylation” value is 100 µM.
